In the experiment the test system is P388 leukemia ip, CD2F1 mice, survival T/C. Nature of the experiment: NCI In Vivo Anticancer Drug Screen. Data for tumor model P388 Leukemia (intraperitoneal) in CD2F1 (CDF1) mice. The note with it: endpoint: median survival time, higher = longer survival. The procedure, abridged: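 Mice carrying the transplanted tumor received test compound or vehicle. Survival was recorded in each group, and the value is the treated-group measurement divided by that of the vehicle-treated control group.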

Setting [1] is: dose: 50.0 mg/kg/injection, schedule: Q01DX009 (ip), vehicle: saline with Tween-80.
Setting [2] is: dose: 100.0 mg/kg/injection, schedule: Q01DX009 (ip), vehicle: saline with Tween-80.
[3] abbreviates: dose: 200.0 mg/kg/injection, schedule: Q01DX009 (ip), vehicle: saline with Tween-80.
Where [4] appears, read: dose: 50.0 mg/kg/injection, schedule: Q01DX005 (ip), vehicle: saline with Tween-80.
The mark [5] stands for this setting: dose: 100.0 mg/kg/injection, schedule: Q01DX005 (ip), vehicle: saline with Tween-80.
[6] abbreviates: dose: 200.0 mg/kg/injection, schedule: Q01DX005 (ip), vehicle: saline with Tween-80.
[7] abbreviates: dose: 6.25 mg/kg/injection, schedule: Q01DX009 (ip), vehicle: saline with Tween-80.
Setting [8] is: dose: 12.5 mg/kg/injection, schedule: Q01DX009 (ip), vehicle: saline with Tween-80.
[9] abbreviates: dose: 25.0 mg/kg/injection, schedule: Q01DX009 (ip), vehicle: saline with Tween-80.
[10] abbreviates: dose: 100.0 mg/kg/injection, schedule: Q01DX001 (ip), vehicle: saline with Tween-80.
Setting [11] is: dose: 200.0 mg/kg/injection, schedule: Q01DX001 (ip), vehicle: saline with Tween-80.
Where [12] appears, read: dose: 50.0 mg/kg/injection, schedule: Q01DX009 (ip), vehicle: saline.
Setting [13] is: dose: 100.0 mg/kg/injection, schedule: Q01DX009 (ip), vehicle: saline.
Setting [14] is: dose: 200.0 mg/kg/injection, schedule: Q01DX009 (ip), vehicle: saline.

The values below come from PubChem BioAssay AID330 (DTP/NCI, 2004).

Values joined by “and” are separate entries in the source; they are usually repeats but may differ in a detail not shown here. Identical values can stand only once. Toxic doses and inconclusive results are not listed.

In the case of `CCn1c(=O)c2[nH]c(=S)[nH]c2n(CC)c1=O`, the T/C is 108 % of control (dose: 16.0 mg/kg/injection, schedule: Q01DX009 (ip), vehicle: Klucel (hydroxypropylcellulose) (HPC)); 104 % of control (dose: 32.0 mg/kg/injection, schedule: Q01DX009 (ip), vehicle: Klucel (hydroxypropylcellulose) (HPC)); 105 % of control (dose: 50.0 mg/kg/injection, schedule: Q01DX009 (ip), vehicle: Klucel (hydroxypropylcellulose) (HPC)); 107 % of control (dose: 64.0 mg/kg/injection, schedule: Q01DX009 (ip), vehicle: Klucel (hydroxypropylcellulose) (HPC)); 95 % of control (dose: 100.0 mg/kg/injection, schedule: Q01DX009 (ip), vehicle: Klucel (hydroxypropylcellulose) (HPC)); 102 % of control (dose: 200.0 mg/kg/injection, schedule: Q01DX009 (ip), vehicle: Klucel (hydroxypropylcellulose) (HPC)).

Take `CCOC(CN=Cc1cc(C)c2oc3ccccc3c2c1C)OCC`: the T/C is, setting by setting: under setting [1], 100 % of control; under setting [2], 100 % of control; under setting [3], 95 % of control.

For the compound `Cc1cc(C(C(N)=O)c2ccccc2)ccc1N(CCCl)CCCl` (stereo not drawn), the T/C is, setting by setting: (dose: 9.37 mg/kg/injection, schedule: Q01DX009 (ip), vehicle: other) 168 % of control; (dose: 18.75 mg/kg/injection, schedule: Q01DX009 (ip), vehicle: other) 195 % of control; (dose: 25.0 mg/kg/injection, schedule: Q04DX003 (ip), vehicle: Klucel (hydroxypropylcellulose) (HPC)) 184 % of control; (dose: 50.0 mg/kg/injection, schedule: Q04DX003 (ip), vehicle: Klucel (hydroxypropylcellulose) (HPC)) 176 % of control; (dose: 100.0 mg/kg/injection, schedule: Q04DX003 (ip), vehicle: Klucel (hydroxypropylcellulose) (HPC)) 97 % of control.

`COc1ccc2ccccc2c1Cc1ccc(N(C)C)cc1Cl`: the T/C reads like this: under setting [4], 92 % of control; under setting [5], 95 % of control; under setting [6], 90 % of control.

Turning to `N#CCS(=O)CC(N)C(=O)O` (stereo not drawn), the T/C under setting [4] was 102 % of control, the T/C under setting [5] is 101 % of control and the T/C under setting [6] was 100 % of control.

For `S=C(Nc1ccc(I)cc1)SCc1ccc2c(c1)OCO2`, the T/C is 110 % of control (dose: 50.0 mg/kg/injection, schedule: Q01DX009 (ip), vehicle: suspension in saline); 104 % of control (dose: 100.0 mg/kg/injection, schedule: Q01DX009 (ip), vehicle: suspension in saline); 101 % of control (dose: 200.0 mg/kg/injection, schedule: Q01DX009 (ip), vehicle: suspension in saline).

On to `CCOC(=O)N(O)c1ccc(C)cc1`, for which the T/C (dose: 100.0 mg/kg/injection, schedule: Q04DX002 (ip), vehicle: saline with Tween-80) is 109 % of control; the T/C (dose: 200.0 mg/kg/injection, schedule: Q04DX002 (ip), vehicle: saline with Tween-80) was 112 % of control; the T/C (dose: 400.0 mg/kg/injection, schedule: Q04DX002 (ip), vehicle: saline with Tween-80) is 124 % of control.

As for `CN(c1ccc(C2=NCCN2)cc1)S(=O)(=O)c1ccc(Oc2ccc(S(=O)(=O)N(C)c3ccc(C4=NCCN4)cc3)cc2)cc1`, the T/C reads like this: (dose: 6.25 mg/kg/injection, schedule: Q01DX005 (ip), vehicle: Klucel (hydroxypropylcellulose) (HPC)) 100 % of control; (dose: 12.5 mg/kg/injection, schedule: Q01DX005 (ip), vehicle: Klucel (hydroxypropylcellulose) (HPC)) 100 % of control; (dose: 25.0 mg/kg/injection, schedule: Q01DX005 (ip), vehicle: Klucel (hydroxypropylcellulose) (HPC)) 109 % of control.

As for `ClC(Cl)(Cl)C1OCCO1`, the T/C reads like this: under setting [1], 95 % of control; under setting [2], 104 % of control; (dose: 100.0 mg/kg/injection, schedule: Q04DX003 (ip), vehicle: saline with Tween-80) 100 % of control; under setting [3], 90 % of control; (dose: 200.0 mg/kg/injection, schedule: Q04DX003 (ip), vehicle: saline with Tween-80) 90 % of control; (dose: 400.0 mg/kg/injection, schedule: Q04DX003 (ip), vehicle: saline with Tween-80) 95 % of control.

For `O=C(/C(=C\c1ccccc1)c1ccccc1)c1ccccc1`, the T/C is 92 % of control under setting [1]; 88 % of control under setting [2]; 93 % of control under setting [3]; 95 % of control (dose: 400.0 mg/kg/injection, schedule: Q01DX009 (ip), vehicle: saline with Tween-80).

On to `Fc1ccc(NC(=S)S)cc1`, for which the T/C by setting is: under setting [7], 104 % of control; (dose: 6.25 mg/kg/injection, schedule: Q04DX003 (ip), vehicle: saline) 100 % of control; under setting [8], 104 % of control; (dose: 12.5 mg/kg/injection, schedule: Q04DX003 (ip), vehicle: saline) 115 % of control; under setting [9], 104 % of control; (dose: 25.0 mg/kg/injection, schedule: Q04DX003 (ip), vehicle: saline) 100 % of control.

As for `Nc1nc2c(-c3ccc([N+](=O)[O-])cc3)nnn2c2ccccc12`, the T/C runs as follows: under setting [1], 95 % of control; under setting [2], 86 % of control; under setting [3], 95 % of control.

Consider `O=S(=O)(c1ccc(Cl)c(Cl)c1)N(c1cccc(C(F)(F)F)c1)S(=O)(=O)c1ccc(Cl)c(Cl)c1`, for which the T/C under setting [7] is 100 % of control, the T/C under setting [8] is 94 % of control and the T/C under setting [9] was 97 % of control.

Take `Nc1ccc([N+](=O)[O-])cc1C(=O)NCCc1ccncc1`: the T/C under setting [4] was 95 % of control, the T/C under setting [5] was 97 % of control and the T/C under setting [6] was 99 % of control.

In the case of `CC1=CC2OC34COC3CC(OC(=O)C(F)(F)F)C4(C)C2(C)CC1` (stereo not drawn), the T/C (dose: 24.0 mg/kg/injection, schedule: Q04DX003 (ip), vehicle: saline with Tween-80) is 120 % of control; the T/C (dose: 37.5 mg/kg/injection, schedule: Q04DX003 (ip), vehicle: saline with Tween-80) was 113 % of control; the T/C (dose: 55.0 mg/kg/injection, schedule: Q04DX003 (ip), vehicle: saline with Tween-80) is 112 % of control.

With `CNC(C)C1(O)Cc2c(O)c3c(c(O)c2C(OC2CC(N)C(O)C(C)O2)C1)C(=O)c1c(OC)cccc1C3=O` (stereo not drawn), the T/C is 150 % of control (dose: 4.0 mg/kg/injection, schedule: Q01DX009 (ip), vehicle: water); 157 % of control and 161 % of control (dose: 8.0 mg/kg/injection, schedule: Q01DX009 (ip), vehicle: water); 95 % of control (dose: 16.0 mg/kg/injection, schedule: Q01DX009 (ip), vehicle: water).

On to `C=CCCCCCCCCCC(CCCCCC)C(=O)O` (stereo not drawn), for which the T/C runs as follows: (dose: 50.0 mg/kg/injection, schedule: Q01DX001 (ip), vehicle: saline with Tween-80) 91 % of control; under setting [10], 100 % of control; under setting [11], 95 % of control.

`Cn1c(Cl)c(/C=C2/N=C(c3ccccc3)OC2=O)c2ccccc21`: the T/C reads like this: (dose: 100.0 mg/kg/injection, schedule: Q01DX001 (ip), vehicle: Klucel (hydroxypropylcellulose) (HPC)) 94 % of control; (dose: 200.0 mg/kg/injection, schedule: Q01DX001 (ip), vehicle: Klucel (hydroxypropylcellulose) (HPC)) 94 % of control; (dose: 400.0 mg/kg/injection, schedule: Q01DX001 (ip), vehicle: Klucel (hydroxypropylcellulose) (HPC)) 94 % of control.

For `CC(NC(=O)C(N)Cc1ccc(O)cc1)C(=O)NCC(=O)N(C)C(Cc1ccccc1)C(=O)NC(CO)CCS(C)=O` (stereo not drawn), the T/C was 115 % of control under setting [12], 95 % of control under setting [13] and 105 % of control under setting [14].

For `C[S+](C)CCO`, the T/C by setting is: under setting [12], 100 % of control; under setting [13], 102 % of control; under setting [14], 98 % of control; (dose: 400.0 mg/kg/injection, schedule: Q01DX009 (ip), vehicle: saline) 95 % of control.

Turning to `CCOC(=O)/N=[N+](\[O-])c1cccc([N+](=O)[O-])c1`, the T/C was 103 % of control under setting [10] and 93 % of control under setting [11].

Take `O=C(O)/C=C/CCCCCCO`: the T/C (dose: 100.0 mg/kg/injection, schedule: Q04DX002 (ip), vehicle: saline + alcohol) is 91 % of control; the T/C (dose: 200.0 mg/kg/injection, schedule: Q04DX002 (ip), vehicle: saline + alcohol) is 100 % of control; the T/C (dose: 400.0 mg/kg/injection, schedule: Q04DX002 (ip), vehicle: saline + alcohol) was 106 % of control.
